Measured values as given in publication PMC9635472, “Design, synthesis, and biological evaluation of novel ciprofloxacin derivatives as potential anticancer agents targeting topoisomerase II enzyme” (Journal of Enzyme Inhibition and Medicinal Chemistry, 2022).

Assays:
[1] = tested on: Human bladder cancer (T-24) cell line; assay: MTT cell viability assay, T-24 cells; type: cell-based; details: bladder cancer cell line T-24, treatment for 24 h (table title), means of three experiments, read-out: IC50 (μM* ± SD) T-24
Method: (§1) Human bladder cancer (T-24) and human prostate carcinoma (PC-3) cell lines were obtained from American Type Culture Collection (ATCC; Manassas, VA USA). Cells were maintained in Dulbecco’s modified Eagle medium with 10% foetal bovine serum at 37 °C and 5% CO2. All the operations were carried out under strict aseptic conditions. The culture medium was removed to a centrifuge tube containing 9.0 ml complete culture medium and spanned at approximately 125 × g for 5 to 7 min. The cell layer was rinsed with 0.25% (w/v) trypsin- […] EDTA solution by which all traces of serum-containing inhibitor were removed. Trypsin EDTA solution 2.0 to 3.0 ml was added to a flask and cells were monitored under an inverted microscope until the cell layer was dispersed (usually within 5–15 min). A complete growth medium was added (6.0–8.0 ml), and cells were aspirated by gentle pipetting. The cell pellet was suspended with the recommended complete medium and dispensed into a 75 cm^2 culture flask. The culture vessel containing the complete growth medium was placed in the incubator for 24 h to at 37 °C. The cells were treated with different concentrations (0.39, 1.60, 6.25, 25, and 100 μg/ml) of each of the test compounds or doxorubicin, […], then the plates were examined under the inverted microscope and finally the MTT assay was carried out.
(§2) Anti-cancer activity of the newly synthesised compounds was evaluated in vitro against both T-24 and PC-3 cell lines according to the MTT method. Cells were seeded into 96-well plates (flat bottom) at a density of 10 000 cells/well for 24 h. The vial of MTT to be used was reconstituted with 3 ml of medium or balanced salt solution without phenol red and serum. then, a reconstituted MTT vial was added in an amount equal to 10% of the culture medium volume. Cultures were incubated for 2–4 h depending on the cell type and maximum cell density and removed from the incubator and the formazan crystals were dissolved via the addition of an amount of MTT solubilisation solution (M-8910) equal to the original culture medium volume. ROBONIK P2000 spectrophotometer at a wavelength of 570 nm was used to measure the colour intensity spectrophotometrically. The survival curve of both T-24 and PC-3 cells was obtained by plotting the percentage of surviving cells against the drug after each compound. The IC50 value for each test compound and the reference drug doxorubicin was calculated.
(§3) In this study, all the newly synthesised CP derivatives were subjected to anticancer activity evaluation against bladder (T-24) and prostate cancer (PC-3) cell lines. The compounds were evaluated for their activity using 5 doses determinations (100 μg/ml, 25 μg/ml, 6.25 μg/ml, 1.60 μg/ml, and 0.39 μg/ml). Their half-maximal inhibitory concentration (IC50) values were measured. Doxorubicin was chosen as a reference anticancer drug[65].

[2] = tested on: human prostate carcinoma (PC-3) cell line; assay: MTT cell viability assay, PC-3 cells; type: cell-based; details: prostate cancer cell line PC-3, treatment for 24 h (table title), means of three experiments, read-out: IC50 (μM* ± SD) PC-3
Method: as §1, §2, §3

Row | IC50 [1] | IC50 [2] | melting point | Compound
1 | 37.3 ± 2.02 µM | 98.2 ± 5 µM | 188 to 190 °C | CC1=NN(C(=O)CN2CCN(c3cc4c(cc3F)c(=O)c(C(=O)O)cn4C3CC3)CC2)C(=O)C1 [Compound 3, 1-cyclopropyl-6-fluoro-7-(4-(2-(3-methyl-5-oxo-4,5-dihydro-1H-pyrazol-1-yl)-2-oxoethyl)piperazin-1-yl)-4-oxo-1,4-dihydroquinoline-3-carboxylic acid]
2 | 25.5 ± 1.38 µM | 29.9 ± 1.53 µM | 181 to 183 °C | N=C1CC(=O)NN1C(=O)CN1CCN(c2cc3c(cc2F)c(=O)c(C(=O)O)cn3C2CC2)CC1 [Compound 4, 1-cyclopropyl-6-fluoro-7-(4-(2-(5-imino-3-oxopyrazolidin-1-yl)-2-oxoethyl)piperazin-1-yl)-4-oxo-1,4-dihydroquinoline-3-carboxylic acid]
3 | 25.9 ± 1.39 µM | 24.9 ± 1.26 µM | – | Cc1cc(C)n(C(=O)CN2CCN(c3cc4c(cc3F)c(=O)c(C(=O)O)cn4C3CC3)CC2)n1 [Compound 5, 1-cyclopropyl-7-(4-(2-(3,5-dimethyl-1H-pyrazol-1-yl)-2-oxoethyl)piperazin-1-yl)-6-fluoro-4-oxo-1,4-dihydro-quinoline-3-carboxylic acid]
4 | 25.6 ± 0.71 µM | 32.8 ± 0.86 µM | 173 to 175 °C | CC(=NNC(=O)CN1CCN(c2cc3c(cc2F)c(=O)c(C(=O)O)cn3C2CC2)CC1)c1ccc(N)cc1 [Compound 7c, 7-(4-(2-(2-(1-(4-Aminophenyl)ethylidene)hydrazinyl)-2-oxoethyl)-piperazin-1-yl)-1-cyclopropyl-6-fluoro-4-oxo-1,4-dihydroquinoline-3-carboxylic acid]
5 | 88 ± 4.75 µM | 8.81 ± 0.44 µM | 166 to 168 °C | CC(=NNC(=O)CN1CCN(c2cc3c(cc2F)c(=O)c(C(=O)O)cn3C2CC2)CC1)c1ccccc1O [Compound 7d, 1-Cyclopropyl-6-fluoro-7-(4-(2-(2-(1-(2-hydroxyphenyl)ethylidene)hydrazinyl)-2-oxoethyl)piperazin-1-yl)-4-oxo-1,4-dihydroquinoline-3-carboxylic acid]
6 | 25 ± 0.2 µM | 50.5 ± 10.4 µM | 245 to 247 °C | CC(=NNC(=O)CN1CCN(c2cc3c(cc2F)c(=O)c(C(=O)O)cn3C2CC2)CC1)c1cccs1 [Compound 7e, 1-Cyclopropyl-6-fluoro-4-oxo-7-(4-(2-oxo-2-(2-(1-(thiophen-2-yl)ethylidene)hydrazinyl)ethyl)piperazin-1-yl)-1,4-dihydroquinoline-3-carboxylic acid]
7 | 124 ± 6.7 µM | 136 ± 6.94 µM | 286 to 288 °C | CC(=NNC(=O)CN1CCN(c2cc3c(cc2F)c(=O)c(C(=O)O)cn3C2CC2)CC1)c1ccc(Cl)s1 [Compound 7f, 7-(4-(2-(2-(1-(5-Chlorothiophen-2-yl)ethylidene)hydrazinyl)-2-oxoethyl)piperazin-1-yl)-1-cyclopropyl-6-fluoro-4-oxo-1,4-dihydro-quinoline-3-carboxylic acid]
8 | 336 ± 18.1 µM | 41.1 ± 2.09 µM | 263 to 265 °C | O=C(CN1CCN(c2cc3c(cc2F)c(=O)c(C(=O)O)cn3C2CC2)CC1)NN=C1C(=O)Nc2cccc(Br)c21 [Compound 8b, 7-(4-(2-(2-(4-Bromo-2-oxoindolin-3-ylidene)hydrazinyl)-2-oxoethyl)piperazin-1-yl)-1-cyclopropyl-6-fluoro-4-oxo-1,4-dihydro-quinoline-3-carboxylic acid]
9 | 28.6 ± 1.54 µM | 19.3 ± 0.98 µM | 285 to 287 °C | Cc1cccc(Cl)c1NC(=O)NNC(=O)CN1CCN(c2cc3c(cc2F)c(=O)c(C(=O)O)cn3C2CC2)CC1 [Compound 9b, 7-(4-(2-(2-((2-Chloro-6-methylphenyl)carbamoyl)hydrazinyl)-2-oxoethyl)piperazin-1-yl)-1-cyclopropyl-6-fluoro-4-oxo-1,4-dihydro-quinoline-3-carboxylic acid]
10 | 134 ± 7.23 µM | 4.85 ± 0.27 µM | 238 to 240 °C | COc1ccc(NC(=S)NNC(=O)CN2CCN(c3cc4c(cc3F)c(=O)c(C(=O)O)cn4C3CC3)CC2)cc1 [Compound 9c, 1-Cyclopropyl-6-fluoro-7-(4-(2-(2-((4-methoxyphenyl)carbamo-thioyl)hydrazinyl)-2-oxoethyl)piperazin-1-yl)-4-oxo-1,4-dihydroquinoline-3-carboxylic acid]
11 | 45.4 ± 2.45 µM | 74.3 ± 3.78 µM | 183 to 185 °C | O=C(CN1CCN(c2cc3c(cc2F)c(=O)c(C(=O)O)cn3C2CC2)CC1)NNCC(=O)c1ccccc1 [Compound 10a, 1-Cyclopropyl-6-fluoro-4-oxo-7-(4-(2-oxo-2-(2-(2-oxo-2-phenyl-ethyl)hydrazinyl)ethyl)piperazin-1-yl)-1,4-dihydroquinoline-3-carboxylic acid]
12 | 17.2 ± 0.93 µM | 3.38 ± 0.18 µM | 210 to 215 °C | O=C(CN1CCN(c2cc3c(cc2F)c(=O)c(C(=O)O)cn3C2CC2)CC1)NNCC(=O)c1cccc(Br)c1 [Compound 10b, 7-(4-(2-(2-(2-(3-Bromophenyl)-2-oxoethyl)hydrazinyl)-2-oxo-ethyl)piperazin-1-yl)-1-cyclopropyl-6-fluoro-4-oxo-1,4-dihydroquinoline-3-carboxylic acid]
13 | 68.5 ± 3.69 µM | 82.2 ± 4.18 µM | 184 to 186 °C | O=C(CN1CCN(c2cc3c(cc2F)c(=O)c(C(=O)O)cn3C2CC2)CC1)NN1C(=O)CCC1=O [Compound 11, 1-cyclopropyl-7-(4-(2-((2,5-dioxopyrrolidin-1-yl)amino)-2-oxoethyl)piperazin-1-yl)-6-fluoro-4-oxo-1,4-dihydroquinoline-3-carboxylic acid]
14 | 47 ± 1.09 µM | 126 ± 6.39 µM | 190 to 192 °C | O=C(CN1CCN(c2cc3c(cc2F)c(=O)c(C(=O)O)cn3C2CC2)CC1)NN1C(=O)c2ccccc2C1=O [Compound 12, 1-cyclopropyl-7-(4-(2-((1,3-dioxoisoindolin-2-yl)amino)-2-oxoethyl)piperazin-1-yl)-6-fluoro-4-oxo-1,4-dihydroquinoline-3-carboxylic acid]
15 | 34.5 ± 1.86 µM | 30.5 ± 1.56 µM | 188 to 200 °C | NC(=S)NNC(=O)CN1CCN(c2cc3c(cc2F)c(=O)c(C(=O)O)cn3C2CC2)CC1 [Compound 13, 7-(4-(2-(2-carbamothioylhydrazinyl)-2-oxoethyl)piperazin-1-yl)-1-cyclopropyl-6-fluoro-4-oxo-1,4-dihydroquinoline-3-carboxylic acid]
16 | 19.5 ± 0.58 µM | 6.49 ± 0.24 µM | 240 to 242 °C | O=C(CN1CCN(c2cc3c(cc2F)c(=O)c(C(=O)O)cn3C2CC2)CC1)NN=C1NC(=O)CS1 [Compound 14, 1-cyclopropyl-6-fluoro-4-oxo-7-(4-(2-oxo-2-(2-(4-oxothiazolidin-2-ylidene)hydrazinyl)ethyl)piperazin-1-yl)-1,4-dihydroquinoline-3-carboxylic acid]
17 | 15.9 ± 0.87 µM | 7.54 ± 0.39 µM | 256 to 258 °C | O=C(CN1CCN(c2cc3c(cc2F)c(=O)c(C(=O)O)cn3C2CC2)CC1)NN=c1[nH]c(-c2ccccc2)cs1 [Compound 15, 1-cyclopropyl-6-fluoro-4-oxo-7-(4-(2-oxo-2-(2-(4-phenylthiazol-2(3H)-ylidene)hydrazinyl)ethyl)piperazin-1-yl)-1,4-dihydroquinoline-3-carboxylic acid]
